Measured values published in patent US20250304620A1, “ANTIMICROBIAL PEPTIDE AND APPLICATION THEREOF” (priority 2023, published 2025).
Converted amounts (≈) assume the structure as drawn. Marks after values point to notes of the source that are not given here. Non-standard residues stand in square brackets, D forms with d. Residues, ends and D or L forms follow the SMILES beside them. dPhe(4-Br) = N[C@H](Cc1ccc(Br)cc1)C(=O)O; dPhe(4-Me) = Cc1ccc(C[C@@H](N)C(=O)O)cc1; d2Nal = N[C@H](Cc1ccc2ccccc2c1)C(=O)O; dNle = CCCC[C@@H](N)C(=O)O; dNva = CCC[C@@H](N)C(=O)O

Columns and labels:
[1] = tested on: Bacillus subtilis ATCC 6633; type: cell-based
Method in brief: (§1)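 Peptides were tested against clinical bacterial and fungal strains by CLSI microdilution using a serial twofold dilution series, and the MIC was taken as the value. Replicates: 5, run in parallel.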

[2] = tested on: Candida albicans ATCC MYA-2876; type: cell-based
Method in brief: as §1

[3] = tested on: Candida glabrata ATCC 15126; type: cell-based
Method in brief: as §1

Candida krusei ATCC 6258 = type: cell-based
Method in brief: as §1

[4] = tested on: Candida tropicalis ATCC 750; type: cell-based
Method in brief: as §1

Candida utilis ATCC 9950 = type: cell-based
Method in brief: as §1

[5] = tested on: Corynebacterium ATCC 7715; type: cell-based
Method in brief: as §1

Enterococcus ATCC 29212 = type: cell-based
Method in brief: as §1

[6] = tested on: Escherichia coli ATCC 25922; type: cell-based
Method in brief: as §1

[7] = tested on: Klebsiella pneumoniae ATCC 700603; type: cell-based
Method in brief: as §1

[8] = tested on: Pseudomonas aeruginosa ATCC 27853; type: cell-based
Method in brief: as §1

[9] = tested on: Salmonella typhimurium ATCC 14028; type: cell-based
Method in brief: as §1

[10] = tested on: Serratia marcescens ATCC 29021; type: cell-based
Method in brief: as §1

[11] = tested on: Staphylococcus aureus ATCC 25923; type: cell-based
Method in brief: as §1

[12] = tested on: Trichophyton ATCC MYA-4438; type: cell-based
Method in brief: as §1

[13] = tested on: Shigella flexneri ATCC 12022; assay: MIC against clinically common bacterial strain; type: cell-based
Method in brief: as §1

rabbit red blood cells = type: cell-based; conditions: red cells of rabbit, 1 h
[14] = tested on: Staphylococcus aureus (NRS 384); conditions: NRS 384, 3 h
Experimental: Trypsin (250 U/mg, pH=8.0) and AMPs (LV-1 to LV-30) were mixed in a ratio of 1:10 (w/w) and added to a reaction buffer (0.2 M sodium phosphate, 1 mM CaCl2), pH 7.5), and then incubated at 37° C. for 3 h.

[15] = tested on: Escherichia coli ATCC 25922; assay: Oral formulations on mice with systemic bacterial infection; type: in vivo, ICR mice; conditions: three times a day for 7 days; for Number of mice that died on each day after infection: day 4 / Number of mice that died on each day after infection: day 5 / Number of mice that died on each day after infection: day 6 / Number of mice that died on each day after infection: day 7 / Number of mice that died on each day after infection: day 8 / Average survival times (Days): n = 10; for Average survival times (Days): observed for 14 d
Method in brief: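 Survival time and deaths were logged over a 14 d observation after oral gavage dosing (by body weight, thrice daily, 7 days, starting right after infection). Model: mixed-sex ICR mice, n=10 per group, intraperitoneal injection of E. coli ATCC 25922 suspension (0.2 mL, 1×10^7 CFU/mL).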

[16] = Serum stability assay (residual level by RP-HPLC); conditions: human

| Compound | MIC Bacillus subtilis ATCC 6633 [1] [µg/mL] | MIC Candida albicans ATCC MYA-2876 [2] [µg/mL] | MIC Candida glabrata ATCC 15126 [3] [µg/mL] | MIC Candida krusei ATCC 6258 (Candida krusei ATCC 6258) [µg/mL] | MIC Candida tropicalis ATCC 750 [4] [µg/mL] | MIC Candida utilis ATCC 9950 (Candida utilis ATCC 9950) [µg/mL] | MIC Corynebacterium ATCC 7715 [5] [µg/mL] | MIC Enterococcus ATCC 29212 (Enterococcus ATCC 29212) [µg/mL] | MIC Escherichia coli ATCC 25922 [6] [µg/mL] | MIC Klebsiella pneumoniae ATCC 700603 [7] [µg/mL] | MIC Pseudomonas aeruginosa ATCC 27853 [8] [µg/mL] | MIC Salmonella typhimurium ATCC 14028 [9] [µg/mL] | MIC Serratia marcescens ATCC 29021 [10] [µg/mL] | MIC Staphylococcus aureus ATCC 25923 [11] [µg/mL] | MIC Trichophyton ATCC MYA-4438 [12] [µg/mL] | MIC Shigella flexneri ATCC 12022 [13] [µg/mL] | MHC (minimum hemolytic concentration, lowest concentration causing 10% hemolysis) (rabbit red blood cells) [µg/mL] | Trypsin MIC [14] [µg/mL] | Number of mice that died on each day after infection: day 4 ([15]; 1 mg/kg gavage) [Mouse] | Number of mice that died on each day after infection: day 5 ([15]; 1 mg/kg gavage) [Mouse] | also measured |
| --- | --- | --- | --- | --- | --- | --- | --- | --- | --- | --- | --- | --- | --- | --- | --- | --- | --- | --- | --- | --- | --- |
| CC(=O)N[C@H](CCCCN)C(=O)N[C@H](CCCCN)C(=O)N[C@H](CC(C)C)C(=O)N[C@H](CC(C)C)C(=O)N[C@H](Cc1ccc(Br)cc1)C(=O)N[C@H](CCCNC(=N)N)C(=O)N[C@H](CC(C)C)C(=O)N[C@H](CCCCN)C(=O)N[C@H](Cc1ccc(Br)cc1)C(=O)N[C@H](CCCNC(=N)N)C(=O)N[C@H](CCCCN)C(N)=O [LV-10] (Ac-[dK][dK][dL][dL][dPhe(4-Br)][dR][dL][dK][dPhe(4-Br)][dR][dK]-NH2) | 2 (≈ 1.19 µM) | 8 (≈ 4.77 µM) | 8 (≈ 4.77 µM) | 8 (≈ 4.77 µM) | 4 (≈ 2.39 µM) | 8 (≈ 4.77 µM) | 8 (≈ 4.77 µM) | 2 (≈ 1.19 µM) | 1 (≈ 0.597 µM) | 2 (≈ 1.19 µM) | 2 (≈ 1.19 µM) | 2 (≈ 1.19 µM) | 4 (≈ 2.39 µM) | 2 (≈ 1.19 µM) | 8 (≈ 4.77 µM) | 2 (≈ 1.19 µM) | >1000 | 1 | 0 | 2 | Number of mice that died on each day after infection: day 6 ([15]; 1 mg/kg gavage): 2 Mouse; Number of mice that died on each day after infection: day 7 ([15]; 1 mg/kg gavage): 0 Mouse; Number of mice that died on each day after infection: day 8 ([15]; 1 mg/kg gavage): 1 Mouse; Average survival times (Days) ([15]; 1 mg/kg gavage): 10.0*** Days; remaining at 12 h, 0.91 mg/mL [16]: 98% |
| CC(=O)N[C@H](CCCNC(=N)N)C(=O)N[C@H](CCCCN)C(=O)N[C@H](CC(C)C)C(=O)N[C@H](CC(C)C)C(=O)N[C@H](Cc1ccc(C)cc1)C(=O)N[C@H](CCCCN)C(=O)N[C@H](CC(C)C)C(=O)N[C@H](CCCCN)C(=O)N[C@H](Cc1ccc(C)cc1)C(=O)N[C@H](CCCCN)C(=O)N[C@H](CCCNC(=N)N)C(N)=O [LV-11] (Ac-[dR][dK][dL][dL][dPhe(4-Me)][dK][dL][dK][dPhe(4-Me)][dK][dR]-NH2) | 4 (≈ 2.59 µM) | 8 (≈ 5.17 µM) | 16 (≈ 10.3 µM) | 16 (≈ 10.3 µM) | 8 (≈ 5.17 µM) | 8 (≈ 5.17 µM) | 8 (≈ 5.17 µM) | 2 (≈ 1.29 µM) | 2 (≈ 1.29 µM) | 4 (≈ 2.59 µM) | 2 (≈ 1.29 µM) | 2 (≈ 1.29 µM) | 8 (≈ 5.17 µM) | 1 (≈ 0.647 µM) | 8 (≈ 5.17 µM) | 4 (≈ 2.59 µM) | >1000 | 1 | 1 | 1 | Number of mice that died on each day after infection: day 6 ([15]; 1 mg/kg gavage): 1 Mouse; Number of mice that died on each day after infection: day 7 ([15]; 1 mg/kg gavage): 1 Mouse; Number of mice that died on each day after infection: day 8 ([15]; 1 mg/kg gavage): 2 Mouse; Average survival times (Days) ([15]; 1 mg/kg gavage): 9.4** Days; remaining at 12 h, 0.91 mg/mL [16]: 98.3% |
| CCCC[C@@H](NC(=O)[C@@H](CCCCN)NC(=O)[C@@H](CCCNC(=N)N)NC(C)=O)C(=O)N[C@H](CCCC)C(=O)N[C@H](Cc1ccc2ccccc2c1)C(=O)N[C@H](CCCNC(=N)N)C(=O)N[C@H](CCCC)C(=O)N[C@H](CCCCN)C(=O)N[C@H](Cc1ccc2ccccc2c1)C(=O)N[C@H](CCCNC(=N)N)C(=O)N[C@H](CCCCN)C(N)=O [LV-12] (Ac-[dR][dK][dNle][dNle][d2Nal][dR][dNle][dK][d2Nal][dR][dK]-NH2) | 8 (≈ 4.86 µM) | 8 (≈ 4.86 µM) | 4 (≈ 2.43 µM) | 4 (≈ 2.43 µM) | 8 (≈ 4.86 µM) | 16 (≈ 9.72 µM) | 2 (≈ 1.21 µM) | 4 (≈ 2.43 µM) | 1 (≈ 0.607 µM) | 2 (≈ 1.21 µM) | 1 (≈ 0.607 µM) | 4 (≈ 2.43 µM) | 2 (≈ 1.21 µM) | 1 (≈ 0.607 µM) | 16 (≈ 9.72 µM) | 4 (≈ 2.43 µM) | >1000 | 1 | 0 | 1 | Number of mice that died on each day after infection: day 4 ([15]; 0.2 mg/kg gavage): 1 Mouse; Number of mice that died on each day after infection: day 5 ([15]; 0.2 mg/kg gavage): 2 Mouse; Number of mice that died on each day after infection: day 6 ([15]; 0.2 mg/kg gavage): 2 Mouse; Number of mice that died on each day after infection: day 7 ([15]; 0.2 mg/kg gavage): 1 Mouse; Number of mice that died on each day after infection: day 8 ([15]; 0.2 mg/kg gavage): 0 Mouse; Average survival times (Days) ([15]; 0.2 mg/kg gavage): 8.9** Days; Number of mice that died on each day after infection: day 6 ([15]; 1 mg/kg gavage): 0 Mouse; Number of mice that died on each day after infection: day 7 ([15]; 1 mg/kg gavage): 2 Mouse; Number of mice that died on each day after infection: day 8 ([15]; 1 mg/kg gavage): 1 Mouse; Average survival times (Days) ([15]; 1 mg/kg gavage): 11.1**** Days; Number of mice that died on each day after infection: day 4 ([15]; 5 mg/kg gavage): 0 Mouse; Number of mice that died on each day after infection: day 5 ([15]; 5 mg/kg gavage): 2 Mouse; Number of mice that died on each day after infection: day 6 ([15]; 5 mg/kg gavage): 1 Mouse; Number of mice that died on each day after infection: day 7 ([15]; 5 mg/kg gavage): 1 Mouse; Number of mice that died on each day after infection: day 8 ([15]; 5 mg/kg gavage): 0 Mouse; Average survival times (Days) ([15]; 5 mg/kg gavage): 10.7*** Days; survival time of mice infected with Escherichia coli ([15]; gavage, observed 14 d): superior to those of the Levofloxacin group; remaining at 12 h, 0.91 mg/mL [16]: 97.5% |
| CCC[C@@H](NC(=O)[C@@H](CCCCN)NC(=O)[C@@H](CCCNC(=N)N)NC(C)=O)C(=O)N[C@H](CCC)C(=O)N[C@H](Cc1ccc2ccccc2c1)C(=O)N[C@H](CCCNC(=N)N)C(=O)N[C@H](CCC)C(=O)N[C@H](CCCCN)C(=O)N[C@H](Cc1ccc2ccccc2c1)C(=O)N[C@H](CCCNC(=N)N)C(=O)N[C@H](CCCCN)C(N)=O [LV-13] (Ac-[dR][dK][dNva][dNva][d2Nal][dR][dNva][dK][d2Nal][dR][dK]-NH2) | 4 (≈ 2.49 µM) | 16 (≈ 9.97 µM) | 8 (≈ 4.99 µM) | 4 (≈ 2.49 µM) | 4 (≈ 2.49 µM) | 8 (≈ 4.99 µM) | 4 (≈ 2.49 µM) | 8 (≈ 4.99 µM) | 2 (≈ 1.25 µM) | 4 (≈ 2.49 µM) | 4 (≈ 2.49 µM) | 2 (≈ 1.25 µM) | 4 (≈ 2.49 µM) | 2 (≈ 1.25 µM) | 4 (≈ 2.49 µM) | 8 (≈ 4.99 µM) | >1000 | 1 | 3 | 1 | Number of mice that died on each day after infection: day 6 ([15]; 1 mg/kg gavage): 1 Mouse; Number of mice that died on each day after infection: day 7 ([15]; 1 mg/kg gavage): 0 Mouse; Number of mice that died on each day after infection: day 8 ([15]; 1 mg/kg gavage): 0 Mouse; Average survival times (Days) ([15]; 1 mg/kg gavage): 9.3** Days; remaining at 12 h, 0.91 mg/mL [16]: 98.5% |
